Laboratory results from ChEMBL document CHEMBL3627608, “Crystal structures of human RIP2 kinase catalytic domain complexed with ATP-competitive inhibitors: Foundations for understanding inhibitor selectivity” (Bioorg Med Chem, 2015).

Key:
[1] = target: T1, Serine/threonine-protein kinase 17A (Homo sapiens) (UniProt Q9UEE5); experiment: Inhibition of DRAK1 (unknown origin) at 10 uM after 120 mins P33 radiolabeled kinase activity assay
T1 sequence (whole entry): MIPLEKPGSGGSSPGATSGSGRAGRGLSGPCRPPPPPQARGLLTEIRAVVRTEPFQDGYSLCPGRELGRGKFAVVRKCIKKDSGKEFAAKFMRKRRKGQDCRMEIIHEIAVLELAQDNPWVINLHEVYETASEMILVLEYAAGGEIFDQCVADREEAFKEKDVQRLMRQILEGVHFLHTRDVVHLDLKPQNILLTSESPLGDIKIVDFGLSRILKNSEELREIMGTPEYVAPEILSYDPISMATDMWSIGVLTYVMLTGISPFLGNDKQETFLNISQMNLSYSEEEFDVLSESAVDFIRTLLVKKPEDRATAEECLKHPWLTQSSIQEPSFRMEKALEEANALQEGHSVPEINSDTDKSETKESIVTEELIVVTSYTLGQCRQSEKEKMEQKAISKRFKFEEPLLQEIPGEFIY

[2] = target: T2, Rhodopsin kinase GRK1 (Homo sapiens) (UniProt Q15835); experiment: Inhibition of GRK1 (unknown origin) at 10 uM after 120 mins P33 radiolabeled kinase activity assay
T2 sequence (whole entry): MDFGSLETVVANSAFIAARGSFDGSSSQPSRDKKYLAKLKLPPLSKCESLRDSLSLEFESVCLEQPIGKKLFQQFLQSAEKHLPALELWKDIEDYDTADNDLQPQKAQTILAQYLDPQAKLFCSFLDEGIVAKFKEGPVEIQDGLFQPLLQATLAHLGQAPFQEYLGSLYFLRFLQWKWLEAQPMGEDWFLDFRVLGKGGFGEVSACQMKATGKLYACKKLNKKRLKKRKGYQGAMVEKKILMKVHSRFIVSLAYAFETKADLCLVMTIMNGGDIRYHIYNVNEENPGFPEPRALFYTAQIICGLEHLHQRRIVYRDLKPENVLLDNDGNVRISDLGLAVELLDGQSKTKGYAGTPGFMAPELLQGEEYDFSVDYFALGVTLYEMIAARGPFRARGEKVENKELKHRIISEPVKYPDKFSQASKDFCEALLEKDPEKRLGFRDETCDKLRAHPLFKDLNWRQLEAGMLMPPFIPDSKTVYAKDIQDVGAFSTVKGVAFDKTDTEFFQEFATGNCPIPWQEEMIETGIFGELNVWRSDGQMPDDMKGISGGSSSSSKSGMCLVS

[3] = target: T3, Mitogen-activated protein kinase kinase kinase 5 (Homo sapiens) (UniProt Q99683); experiment: Inhibition of ASK1 (unknown origin) at 10 uM after 120 mins P33 radiolabeled kinase activity assay
T3 sequence (whole entry): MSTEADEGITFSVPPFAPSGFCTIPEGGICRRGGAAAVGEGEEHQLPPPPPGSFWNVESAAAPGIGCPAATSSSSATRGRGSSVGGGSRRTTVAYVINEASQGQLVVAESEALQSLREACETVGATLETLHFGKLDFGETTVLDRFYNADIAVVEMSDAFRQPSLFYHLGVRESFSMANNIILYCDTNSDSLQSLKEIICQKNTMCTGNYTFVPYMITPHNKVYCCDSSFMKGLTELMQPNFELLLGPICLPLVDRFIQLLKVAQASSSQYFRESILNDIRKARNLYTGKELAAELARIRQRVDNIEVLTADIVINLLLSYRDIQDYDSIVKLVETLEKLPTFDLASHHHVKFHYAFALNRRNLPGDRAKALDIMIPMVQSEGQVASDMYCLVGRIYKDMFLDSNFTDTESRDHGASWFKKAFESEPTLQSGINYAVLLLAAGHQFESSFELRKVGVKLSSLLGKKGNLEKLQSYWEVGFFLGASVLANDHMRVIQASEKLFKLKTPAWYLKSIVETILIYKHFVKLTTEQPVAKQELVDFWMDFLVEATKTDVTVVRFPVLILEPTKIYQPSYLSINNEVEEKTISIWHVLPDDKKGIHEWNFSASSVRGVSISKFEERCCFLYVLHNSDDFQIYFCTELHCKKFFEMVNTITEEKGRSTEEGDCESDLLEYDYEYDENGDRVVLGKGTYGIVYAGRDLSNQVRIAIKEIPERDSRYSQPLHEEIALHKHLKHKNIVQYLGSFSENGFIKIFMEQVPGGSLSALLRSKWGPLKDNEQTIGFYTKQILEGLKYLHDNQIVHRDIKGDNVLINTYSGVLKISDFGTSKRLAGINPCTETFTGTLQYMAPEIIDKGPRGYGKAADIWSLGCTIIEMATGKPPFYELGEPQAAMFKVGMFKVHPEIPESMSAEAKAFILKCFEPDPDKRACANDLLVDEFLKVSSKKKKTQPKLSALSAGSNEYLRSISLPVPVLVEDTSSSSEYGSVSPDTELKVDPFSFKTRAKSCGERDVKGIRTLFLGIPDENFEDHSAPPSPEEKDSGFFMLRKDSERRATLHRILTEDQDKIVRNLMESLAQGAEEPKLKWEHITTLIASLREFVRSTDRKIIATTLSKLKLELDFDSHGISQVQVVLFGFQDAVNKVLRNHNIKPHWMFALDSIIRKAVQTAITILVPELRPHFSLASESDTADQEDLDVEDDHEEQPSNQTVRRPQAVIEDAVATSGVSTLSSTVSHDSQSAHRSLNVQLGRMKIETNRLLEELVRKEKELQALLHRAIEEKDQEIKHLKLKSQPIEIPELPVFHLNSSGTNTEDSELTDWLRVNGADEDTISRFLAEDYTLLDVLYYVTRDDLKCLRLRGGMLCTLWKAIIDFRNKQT

Compound | inhibition [1] [%] | inhibition [2] [%] | inhibition [3] [%]
COCCNC(=O)c1ccc2c(c1)nc(-c1cnc(-c3ccc(Cl)cc3)[nH]1)n2CCOC | 5.43 | 11.4 | 19.7
CS(=O)(=O)c1cccc(Nc2nccc(-c3sc(N4CCOCC4)nc3-c3cccc(NS(=O)(=O)c4c(F)cccc4F)c3)n2)c1 | 1.47 | 6.04 | 9.88
CC(C)(C)c1cc(NC(=O)Nc2ccc(Oc3ccncc3)cc2)no1 | 8.49 | 7.39 | 19.8
